Patent US9359634B2, “Fast reaction kinetics of enzymes having low activity in dry chemistry layers” (Roche Diabetes Care, Inc., priority 2009, dated 2016)

Key:
[1] = target: T1, wild type glucose dehydrogenase (GlucDH) from Bacillus subtilis (Bacillus subtilis, UniProt P12310, A229V/A236S/Q252K); settings: in the complex GlucDH-NADH; cited from earlier work
[2] = target: T1, wild type glucose dehydrogenase (GlucDH) from Bacillus subtilis; test: Detection of ternary complexes by NADH fluorescence in the cuvette test; type: binding
Procedure: In order to check the existence of ternary complexes consisting of enzyme, reduced coenzyme and glucose or gluconolactone, experiments on the binding of the analyte based on the fluorescence properties of NADH were carried out in the cuvette test.
For this purpose, 1 mg NADH (Roche Company) was dissolved in 1 ml phosphate buffer and the associated fluorescence spectrum was recorded. Subsequently, 10 mg wild type glucose dehydrogenase (GlucDH) from Bacillus subtilis was added whereupon the complex GlucDH-NADH known from the literature was formed, which complex, due to a considerably longer life time of NADH (3 ns compared to 0.4 ns in the free state), yielded a shifted emission maximum at 450 nm (see FIG. 3).
The lowering of the fluorescence which also corresponds to a shortening of the life time is presumably due to the rapid energy depletion by the redox pair NADH-gluconolactone.

[3] = target: glucose dehydrogenase from Bacillus subtilis (Bacillus subtilis, UniProt P12310, A229V/A236S/Q252K); type: biochemical; settings: dry reagent layer with wild type glucose dehydrogenase, blood applied, presence vs absence of gluconolactone
glucose dehydrogenase from Bacillus subtilis, sequence (P12310 whole entry A229V/A236S/Q252K): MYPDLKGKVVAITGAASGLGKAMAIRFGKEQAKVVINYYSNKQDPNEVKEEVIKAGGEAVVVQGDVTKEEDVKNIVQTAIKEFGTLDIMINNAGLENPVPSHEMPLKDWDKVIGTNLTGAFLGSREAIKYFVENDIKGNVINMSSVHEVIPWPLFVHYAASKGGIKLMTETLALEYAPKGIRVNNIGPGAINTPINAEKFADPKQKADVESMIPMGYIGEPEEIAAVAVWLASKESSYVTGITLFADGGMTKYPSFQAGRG

T1 sequence (P12310 whole entry A229V/A236S/Q252K): as above

SMILES: NC(=O)C1=CN([C@@H]2O[C@H](COP(=O)(O)OP(=O)(O)OC[C@H]3O[C@@H](n4cnc5c(N)ncnc54)[C@H](O)[C@@H]3O)[C@@H](O)[C@H]2O)C=CC1 [NADH]
- life time of NADH [1]: 3 ns
- emission maximum ([2]; NADH in the complex GlucDH-NADH, phosphate buffer): 450 nm

SMILES: O=C1O[C@H](CO)[C@@H](O)[C@H](O)[C@H]1O [gluconolactone]
- effect of added gluconolactone on the conversion of glucose [3]: considerable slowing down of the conversion
- change of fluorescence on titration of the complex GlucDH-NADH ([2]; binary complex GlucDH-NADH titrated with the substance): lowered the fluorescence
- emission maximum ([2]; complex GlucDH-NADH after titration with gluconolactone): 427 nm
